This is an account of results in ChEMBL document CHEMBL1147379, “Antineoplastic agents, 256. Cell growth inhibitory isocarbostyrils from Hymenocallis” (1993).

In brackets after ≈: the same amount, converted by molar mass.

The subject of this experiment is P388. Put plainly: Growth inhibition of mouse P388 cells. The format is functional. As to conditions: read-out: ED50 (the source's name).

With `O=C1N[C@H]2[C@H](O)[C@H](O)[C@@H](O)C[C@@H]2c2cc3c(c(O)c21)OCO3`, the EC50 was 0.02 µg/mL (≈ 0.0647 µM).
